# Experimental data reported in PubChem BioAssay AID1963969 (Molecular Pharmacology Branch, DTP, NCI, 2024).
# Values joined by “and” are separate entries in the source; they are usually repeats but may differ in a detail not shown here. Equal entries are not always repeated.
# Tested on: 817829-284-R-J1-PDC multi-cell spheroid viability
# Experiment: Anticancer human tumor 817829-284-R-J1-PDC patient-derived colon adenocarcinoma cell line growth inhibition [PI3K]
# Conditions: for viability, T/C: stronger effect = lower value
# Outline: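 Spheroid viability read-out. Co-cultures contained the tumor line plus HUVEC and human MSCs. Each agent was paired with a PI3K inhibitor (inavolisib, alpelisib, duvelisib, copanlisib) across half-log dilutions starting at clinical Cmax, or at 10 microM when Cmax was unknown.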
# [1] = curve of first compound, second compound 0.00316 µM
# [2] = curve of first compound, second compound 0.01 µM
# [3] = curve of first compound, second compound 0.0316 µM
# [4] = curve of first compound, second compound 0.1 µM
# [5] = curve of first compound, second compound 0.316 µM
# [6] = curve of first compound, second compound 1 µM
# [7] = second compound 0.00316 µM, first compound 0.0316 µM
# [8] = second compound 0.00316 µM, first compound 0.1 µM
# [9] = second compound 0.00316 µM, first compound 0.316 µM
# [10] = second compound 0.00316 µM, first compound 1 µM
# [11] = second compound 0.01 µM, first compound 0.0316 µM
# [12] = second compound 0.01 µM, first compound 0.1 µM
# [13] = second compound 0.01 µM, first compound 0.316 µM
# [14] = second compound 0.01 µM, first compound 1 µM
# [15] = second compound 0.0316 µM, first compound 0.0316 µM
# [16] = second compound 0.0316 µM, first compound 0.1 µM
# [17] = second compound 0.0316 µM, first compound 0.316 µM
# [18] = second compound 0.0316 µM, first compound 1 µM
# [19] = second compound 0.1 µM, first compound 0.0316 µM
# [20] = second compound 0.1 µM, first compound 0.1 µM
# [21] = second compound 0.1 µM, first compound 0.316 µM
# [22] = second compound 0.1 µM, first compound 1 µM
# [23] = second compound 0.316 µM, first compound 0.0316 µM
# [24] = second compound 0.316 µM, first compound 0.1 µM
# [25] = second compound 0.316 µM, first compound 0.316 µM
# [26] = second compound 0.316 µM, first compound 1 µM
# [27] = second compound 1 µM, first compound 0.0316 µM
# [28] = second compound 1 µM, first compound 0.1 µM
# [29] = second compound 1 µM, first compound 0.316 µM
# [30] = second compound 1 µM, first compound 1 µM
# 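Note: spheroids exposed to agents for seven days before readout.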
# 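Throughout, for viability, T/C: percent of vehicle DMSO control viability which is 100%.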
smiles,measurement,setting,value
CCN1CCN(Cc2ccc(Nc3ncc(F)c(-c4cc(F)c5nc(C)n(C(C)C)c5c4)n3)nc2)CC1 + COc1c(OCCCN2CCOCC2)ccc2c3n(c(=NC(=O)c4cnc(N)nc4)nc12)CCN3,IC50,[1],> 1000 nM
same,IC50,[2],> 1000 nM
same,IC50,[3],57.5 nM
same,IC50,[4],< 3.16 nM
same,IC50,[5],< 3.16 nM
same,IC50,[6],< 3.16 nM
same,"viability, T/C","second compound 0.00316 µM, first compound 0.00316 µM",113%
same,"viability, T/C","second compound 0.00316 µM, first compound 0.01 µM",83.4%
same,"viability, T/C",[7],72.7%
same,"viability, T/C",[8],50.2%
same,"viability, T/C",[9],50.7%
same,"viability, T/C",[10],53.8%
same,"viability, T/C","second compound 0.01 µM, first compound 0.00316 µM",75.4%
same,"viability, T/C","second compound 0.01 µM, first compound 0.01 µM",60.3%
same,"viability, T/C",[11],58.7%
same,"viability, T/C",[12],58%
same,"viability, T/C",[13],47.8%
same,"viability, T/C",[14],50.4%
same,"viability, T/C","second compound 0.0316 µM, first compound 0.00316 µM",56%
same,"viability, T/C","second compound 0.0316 µM, first compound 0.01 µM",55.5%
same,"viability, T/C",[15],73.6%
same,"viability, T/C",[16],27.9%
same,"viability, T/C",[17],41.4%
same,"viability, T/C",[18],48.2%
same,"viability, T/C","second compound 0.1 µM, first compound 0.00316 µM",36.2%
same,"viability, T/C","second compound 0.1 µM, first compound 0.01 µM",32%
same,"viability, T/C",[19],27.9%
same,"viability, T/C",[20],21.1%
same,"viability, T/C",[21],31.3%
same,"viability, T/C",[22],38.5%
same,"viability, T/C","second compound 0.316 µM, first compound 0.00316 µM",22%
same,"viability, T/C","second compound 0.316 µM, first compound 0.01 µM",16%
same,"viability, T/C",[23],21.6%
same,"viability, T/C",[24],21.2%
same,"viability, T/C",[25],34.1%
same,"viability, T/C",[26],29.4%
same,"viability, T/C","second compound 1 µM, first compound 0.00316 µM",9.7%
same,"viability, T/C","second compound 1 µM, first compound 0.01 µM",9.65%
same,"viability, T/C",[27],9.55%
same,"viability, T/C",[28],12.1%
same,"viability, T/C",[29],16.5%
same,"viability, T/C",[30],21.9%
CC(Nc1ccc2c(c1)OCCn1cc(N3C(=O)OCC3C(F)F)nc1-2)C(N)=O (stereo not drawn),"viability, T/C",compound 0.00316 µM,82.8% [middle of 6 runs]
same,IC50,"compound alone, run of 04/24/2023",> 1000 nM and 280 nM and 1000 nM
CC1(C)CCC(Nc2ncc(C(F)(F)F)c(-c3c[nH]c4c(P(C)(C)=O)c(C#N)ccc34)n2)CN1 (stereo not drawn) + CC(Nc1ccc2c(c1)OCCn1cc(N3C(=O)OCC3C(F)F)nc1-2)C(N)=O,IC50,[1],< 31.6 nM
same,IC50,[2],< 31.6 nM
same,IC50,[3],< 31.6 nM
same,IC50,[4],< 31.6 nM
same,IC50,[5],< 31.6 nM
same,IC50,[6],< 31.6 nM
same,"viability, T/C",[7],27.5%
same,"viability, T/C",[8],24.9%
same,"viability, T/C",[9],36.7%
same,"viability, T/C",[10],28.7%
same,"viability, T/C","second compound 0.00316 µM, first compound 3.16 µM",30%
same,"viability, T/C","second compound 0.00316 µM, first compound 10 µM",0.96%
same,"viability, T/C",[11],26.9%
same,"viability, T/C",[12],25.7%
same,"viability, T/C",[13],25.2%
same,"viability, T/C",[14],33.6%
same,"viability, T/C","second compound 0.01 µM, first compound 3.16 µM",26.4%
same,"viability, T/C","second compound 0.01 µM, first compound 10 µM",1.03%
same,"viability, T/C",[15],24.1%
same,"viability, T/C",[16],28.1%
same,"viability, T/C",[17],25.9%
same,"viability, T/C",[18],32%
same,"viability, T/C","second compound 0.0316 µM, first compound 3.16 µM",24.6%
same,"viability, T/C","second compound 0.0316 µM, first compound 10 µM",0.85%
same,"viability, T/C",[19],25.2%
same,"viability, T/C",[20],28.4%
same,"viability, T/C",[21],32.1%
same,"viability, T/C",[22],27.7%
same,"viability, T/C","second compound 0.1 µM, first compound 3.16 µM",29.2%
same,"viability, T/C","second compound 0.1 µM, first compound 10 µM",1.66%
same,"viability, T/C",[23],23.4%
same,"viability, T/C",[24],28.7%
same,"viability, T/C",[25],26%
same,"viability, T/C",[26],22.8%
same,"viability, T/C","second compound 0.316 µM, first compound 3.16 µM",27.9%
same,"viability, T/C","second compound 0.316 µM, first compound 10 µM",1.09%
same,"viability, T/C",[27],21.7%
same,"viability, T/C",[28],24.1%
same,"viability, T/C",[29],25.8%
same,"viability, T/C",[30],26.2%
same,"viability, T/C","second compound 1 µM, first compound 3.16 µM",26.6%
same,"viability, T/C","second compound 1 µM, first compound 10 µM",1.56%
CC(=O)c1c(C)c2cnc(Nc3ccc(N4CCNCC4)cn3)nc2n(C2CCCC2)c1=O,"viability, T/C",compound 0.0316 µM,54.6% [middle of 4 runs]
same,"viability, T/C",compound 0.1 µM,39.3% [middle of 4 runs]
